Data from US9402821B2, “Methods and pharmaceutical compositions for treatment of cystic fibrosis” (INSERM (Institut National de la sante et de la Recherche …, priority 2012, dated 2016).
“Also recorded” adds a separate entry of the source. Where two headings read alike, the source gives them in different places.

What was measured:
[1] = tested on: NF-κB transcriptional activity; test: NF-κB firefly luciferase reporter assay, TNFα-stimulated cells; type: cell-based; conditions: TNFα 10 ng/ml
Description: All cells were transiently transfected by NF-κB firefly luciferase reporter and renilla luciferase reference. A. HeLa control cells (Ctr) were pre-treated with diluent (0.5%) or different doses of sulindac for 1 h and stimulated for 1 h with 10 ng/ml TNFα. After removal of TNFα, cells were incubated for 4 h with sulindac. Luciferase activity was analysed in protein extract. The NF-κB transcriptional activity in cells treated with sulindac+TNFα was expressed in percent of diluent+TNFα. B. Hela cells Wt, DF508 and Ctr were pre-treated with diluent (0.5%), ibuprofen (500 μM) or sulindac (500 μM) for 1 h and stimulated for 1 h with […] TNFα. After removal of TNFα, cells were incubated for 4 h with pharmacological treatment. The NF-κB transcriptional activity in cells treated with ibuprofen+TNFα and sulindac+TNFα was expressed in percent of diluent+TNFα. Results of at least three independent experiments, means±SEM. Unilateral paired t test: * p<0.02
All cells were pre-treated with diluent (0.5%), sulindac ([…]) or sulindac sulfone (250 μM) for 1 h and stimulated for 1 h with 10 ng/ml TNFα. […]
Plasmid Constructs and Transient Transfection To assay the transcriptional activity of NF-κB, pNF-κBLuc, a luciferase reporter plasmid containing five sequential NF-κB binding sites upstream of a minimum promoter element, NF-κB-Luc (Stratagene), was used. Transcriptional activity of the IL-8 promoter was evaluated with reporter constructs consisting of the IL-8 promoter (−133 bp from the transcription start site) fused to the Luciferase gene, kindly provided by Naofumi Mukaida. […]
(§1) Cells were lysed with the Passive Lysis Buffer (Promega), and luciferase activity in the cellular extracts was determined by the Dual Luciferase Assay System (Promega) using a luminometer (Tristar; Berthold). The results were normalized to those obtained with the Renilla luciferase reference plasmid used to control the transfection efficiency, and the values were expressed as luminescence intensity (Luciferase/Renilla). […]
The transcriptional activity of NF-κB and IL-8 promoter was measured as described before. […]

[2] = tested on: IL-8 promoter; test: IL-8 promoter luciferase reporter / IL-8 mRNA qPCR, TNFα-stimulated cells; type: cell-based; conditions: 250 μM; TNFα 10 ng/ml; HeLa CFTR wt and CFTR DF508 (FIG. 8B)
Description: Cells were transiently transfected by the short IL-8 promoter-firefly luciferase reporter and renilla luciferase reference and inflammation was induced by 10 ng/ml TNFα for 1 h. A. HeLa cells were pre-treated with diluent or different doses of sulindac 1 h before inflammation induction and 4 h after. IL-8 promoter activity in cells treated with sulindac+TNFα was expressed in percent of diluent+TNFα. B. After treatment, HeLa Ctr cells were lysed with TRIzol (Invitrogen). Total RNA was extracted, and 1 μg of total RNA was reverse transcribed with a reverse transcription kit. IL-8 mRNA expression was quantified by real-time quantitative PCR (qPCR). The comparative threshold cycle (CT) method was used for relative quantification of PCR products after IL-8 was normalised to TBP (ΔCt=CtIL-8−CtTBP). […] C After treatment, IL-8 in supernatant was measured by ELISA. The IL-8 stimulation of cells treated with test drug +TNFα were expressed as fold compared to drug −TNFα. […]
as §1

[3] = tested on: cyclooxygenase; conditions: cited from earlier work
[4] = tested on: NF-κB transcriptional activity; conditions: CF cells; recent study [5]; cited from earlier work
[5] = tested on: IL-8 production; conditions: CF cells; recent study [5]; cited from earlier work
[6] = molecular target: CFTR (Homo sapiens, UniProt P13569); test: CFTR maturation by Western blot of membrane extracts; type: cell-based; design: expressed in transfected cells; conditions: 500 μM
Sequence of CFTR (P13569 whole entry): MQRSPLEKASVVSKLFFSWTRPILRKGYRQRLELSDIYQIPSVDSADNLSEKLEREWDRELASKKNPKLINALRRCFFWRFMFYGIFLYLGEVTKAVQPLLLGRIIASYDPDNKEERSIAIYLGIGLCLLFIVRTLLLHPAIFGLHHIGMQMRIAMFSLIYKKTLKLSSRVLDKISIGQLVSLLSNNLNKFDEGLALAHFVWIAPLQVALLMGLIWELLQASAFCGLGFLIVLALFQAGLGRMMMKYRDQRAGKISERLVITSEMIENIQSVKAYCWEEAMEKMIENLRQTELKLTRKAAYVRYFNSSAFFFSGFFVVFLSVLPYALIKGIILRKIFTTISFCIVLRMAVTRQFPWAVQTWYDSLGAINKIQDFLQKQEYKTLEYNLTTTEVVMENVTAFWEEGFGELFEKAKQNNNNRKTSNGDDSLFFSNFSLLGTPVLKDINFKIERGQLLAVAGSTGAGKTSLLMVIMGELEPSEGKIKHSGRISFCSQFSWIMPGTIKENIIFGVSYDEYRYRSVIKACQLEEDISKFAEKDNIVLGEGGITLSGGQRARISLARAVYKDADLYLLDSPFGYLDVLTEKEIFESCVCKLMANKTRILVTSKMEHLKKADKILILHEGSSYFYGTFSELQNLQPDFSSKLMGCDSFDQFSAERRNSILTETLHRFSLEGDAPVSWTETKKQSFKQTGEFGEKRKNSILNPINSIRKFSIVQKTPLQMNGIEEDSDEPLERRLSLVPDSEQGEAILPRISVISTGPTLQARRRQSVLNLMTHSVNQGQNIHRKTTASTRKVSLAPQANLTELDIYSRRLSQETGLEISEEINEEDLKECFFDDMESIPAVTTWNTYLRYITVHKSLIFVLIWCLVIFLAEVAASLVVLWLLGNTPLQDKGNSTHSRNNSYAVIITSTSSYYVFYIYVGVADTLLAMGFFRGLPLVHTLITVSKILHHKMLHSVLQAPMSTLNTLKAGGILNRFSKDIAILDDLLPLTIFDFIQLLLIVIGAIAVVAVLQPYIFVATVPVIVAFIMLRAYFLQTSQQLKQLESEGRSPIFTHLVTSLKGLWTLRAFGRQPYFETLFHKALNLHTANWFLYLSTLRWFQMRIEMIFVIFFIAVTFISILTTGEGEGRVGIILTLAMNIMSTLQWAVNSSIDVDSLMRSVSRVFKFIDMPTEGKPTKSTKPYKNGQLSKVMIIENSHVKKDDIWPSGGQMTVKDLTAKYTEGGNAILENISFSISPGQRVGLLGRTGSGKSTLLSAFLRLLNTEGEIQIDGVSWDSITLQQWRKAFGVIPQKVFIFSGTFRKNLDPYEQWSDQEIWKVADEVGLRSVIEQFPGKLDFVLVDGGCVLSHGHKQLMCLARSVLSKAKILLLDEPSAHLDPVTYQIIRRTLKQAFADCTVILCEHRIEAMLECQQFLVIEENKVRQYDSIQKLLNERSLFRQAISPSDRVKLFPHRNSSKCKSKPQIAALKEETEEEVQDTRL
Description: B. Chloride activity in HeLa Wt cells was measured by MQAE assay, after 3 h of treatment by NSAID (500 μM) or diluent. CFTR activity was expressed in rate of UFA/sec, calculated by difference between ((Ft−F0)/t) with CFTR induction and ((Ft−F0)/t) without CFTR induction. […] C. Primary culture of human nasal epithelial cell (HNEC) grown on Snapwell filters (air-liquid interface) were exposed basolaterally to sulindac (500 μM) or vehicle for 2 h and immediately mounted into a voltage-clamp system to bioelectric measurements. Short circuit current was measured with addition of amiloride to evaluated amiloride sensitive transport or with forskolin and IBMX for induced cAMP-dependent Cl secretion.
To study the CFTR protein present at the cell membrane, a protocol of purification by differential centrifugations was used. CFTR wt and delta F508 HeLa cells (2×10^5 cells/cm^2) were lysed with hypotonic lysis buffer (10 mM de KCl, 1 mM de MgCl2, 10 mM Hepes pH 7, 4 and protease inhibitor). Mechanic lysis of cells was realized with minimum 10 strokes of a 26G syringe. Samples were centrifuged 10 min at 3000 g to eliminate cellular fragments and nuclear fraction in the pellet. Then supernatant was centrifuged 45 min at 50 000 g. The pellets with cellular membrane were resolubilized in RIPA buffer.
Aliquots of membrane cell extracts (30 μg protein) were separated by 7% SDS-PAGE and transferred on PVDF membrane. The western blots were probed with mouse monoclonal antibodies specific for CFTR (MM13-4, Millipore) 2 h at room temperature.

Row | Compound | NF-κB transcriptional activity ([1]; 250 μM, HeLa CFTR wt and CFTR DF508 (FIG. 8A)) | IL-8 promoter activity [2] | inhibition of cyclooxygenase [3] | transcriptional activity of NF-κB ([1]; BEAS-2B and HeLa cells with wt or deltaF508-CFTR (FIGS. 1A, B)) | transcriptional activity of NF-κB [4] | IL-8 production [5] | Ratio CFTR C/C + B (%) ([6]; HeLa CFTR WT, Ctr. 65.1) | mature form of CFTR (Western blot) ([6]; WT-CFTR HeLa cells)
1 | C=S(C)(=O)c1ccc(/C=C2/C(C)=C(CC(=O)O)c3cc(F)ccc32)cc1 (stereo not drawn) [sulindac sulfone] | inhibits the transcriptional activity of NF-κB | at least as effective as sulindac; also recorded: inhibits | inactif on COX; also recorded: does not inhibit cyclooxygenase |  |  |  |  | 
2 | CSc1ccc(/C=C2/C(C)=C(CC(=O)O)c3cc(F)ccc32)cc1 [sulindac sulfide] |  |  | inhibits cyclooxygenase activity |  |  |  |  | 
3 | CC(C)Cc1ccc(C(C)C(=O)O)cc1 (stereo not drawn) [ibuprofen] |  |  |  | inhibits transcriptional activity of NF-κB similar to ibuprofen | inhibits the transcriptional activity of NF-κB | not accompanied by a decreased of IL-8 production | 80.6 | significant increase of mature form of CFTR
